Several values for one entry are separate records, joined by “and”; a condition that tells them apart may be missing. Equal entries are not always repeated. Where two headings read alike, the source gives them in different places.
Tests used:
HCV replicon Luc Neo ET = experiment: Luc Neo ET Replicon assay; assay type: cell-based, Hepatitis C virus; settings: Table 3, titled RdRp enzyme assay results, EC50_Replicon LucneoET, 72 hours with compound, luciferase
Protocol: Human Hepatoma Huh-7 cell line was maintained in DMEM/HAMF-12 supplemented with 10% SVF, 4 mM glutamine, […] Na pyruvate, 1% penistreptomycine. HCV replicon containing Huh-7 cell lines Huh-9.13 and Luc Neo ET (Reblikon) were maintained in DMEM supplemented with 10% SVF, 2 mM glutamine, and 1×NEAA, 100 U/ml penicillin, and 100 μg/ml streptomycine. Replicon cells were maintained in medium supplemented with 1 mg/ml G418 for replicon Huh-9.13 and 0.5 mg/ml for Luc Neo et replicon unless indicated otherwise. Huh-7 and HCV replicon cell lines were maintained at 37° C. and 5% CO2 in a humidified atmosphere. Cells were dissociated at sub confluence with trypsin EDTA 1×.
Replicon Luc Neo ET is a bicistronic expression constructs (Lohmann et al, 1999, Science 285, 110-113). In brief, the structural genes of the HCV genome were replaced by heterologous sequences; the gene encoding the neomycin phosphotransferase (NPT) and the internal ribosome entry site (IRES) of the encephalomyocarditis virus (EMCV). The bicistronic construct is therefore composed of the following elements: HCV-IRES nucleotides 1-389, the NPT gene, the EMCV-IRES directing translation of downstream HCV sequences from NS2 or NS3 up to the authentic 3′ end of the genome. HCV Polyprotein harbours the cell culture adaptive mutations E1202G, T1280I, K1846T. G418-resistance is only possible with cells containing high amounts of replicon.
Cells were dissociated the day before addition of compounds and seeded in 96 well-plates at a final concentration of 77 777.77 cells.ml^−1.well^−2 in 90 μl final volume of culture medium per well and were maintained at 37° C. and 5% CO2 in a humidified atmosphere for 24 hours. 10 μl of compounds to be tested were added 24 hours after seeding. Final concentration of DMSO was 1%. Cells were incubated in the presence of compounds for 72 hours after which expression of firefly luciferase reporter gene was quantified. Briefly, culture medium was removed and cells were lysed by addition of 100 μl of lysis buffer containing 125 mM Tris Phosphate ph 7.8, 10 mM EDTA, 5 mM DTT, 50% glycerol and 5% Triton. Plates were vortexed 10 min at 1300 rpm. Cell lysat was transferred in OpaqueWhite Assay 96 well Flat Bottom plates. 100 μl of luciferin solution 1× were added to each well. Luciferin solution contained 40 mM Tris Phosphate ph 7.8, 0.2 mM EDTA, 67 mM DTT, 2.14 mM MgCl2, 5.4 mM MgSO4, 4.7×10^−4 M luciferin, 5.3×10^−4 M ATP and 2.7×10^−4 M Acetyl co enzyme A. Luminescence was immediately measured with Berthold Microlumat Plus LB 96V luminometer with an integration of 0.5 sec Inhibition was calculated using the formula:
% inhibition=1−[(RLUsample−RLUbackground)/(RLUsignal−RLUbackground)]

HCV NS5B genotype 1b = target: T1, HCV NS5B genotype 1b (Hepatitis C virus genotype 1b, UniProt Q9WMX2); experiment: 3D-SCREEN assay (NS5B 3D-Screen platform, luciferase reporter gene); assay type: cell-based
T1 construct: The protein was expressed with a 21 amino acid C-terminal deletion to remove transmembrane domain; expressed in transfected cells; host or cells: Huh-7
In short: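 Huh-7 cells transiently co-transfected with NS5BΔ21/Gal4-DBD, 3D-Sensor peptide I4/VP16 and firefly luciferase reporter. Compounds added 2 h after seeding, 1% DMSO final, 24 h incubation. Luciferase luminescence read; % inhibition relative to no-compound signal.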

[1] = EC50_3DS_NS5B, Table 1, 3D-SCREEN assay results, Huh-7 cells, 24 hours with compound, firefly luciferase reporter
[2] = EC50_3DS_NS5B, Table 2, titled Replicon assay results

| SMILES | melting point | EC50 (HCV replicon Luc Neo ET) [nM] | EC50 (HCV NS5B genotype 1b; [1]) [nM] | EC50 (HCV NS5B genotype 1b; read-out: EC50_3DS_NS5B, Table 2, titled Replicon assay results) [nM] | EC50 (HCV replicon Luc Neo ET; Hepatitis C virus, 72 h) [nM] | EC50 (HCV NS5B genotype 1b; [2]) [nM] |
| --- | --- | --- | --- | --- | --- | --- |
| Cc1ccc(N2C(=O)C(O)=C(C(=O)c3ccc(C(C)C)cc3)C2c2ccc(C(C)C)cc2)cn1 (stereo not drawn) [Example 48, 3-hydroxy-4-(4-isopropyl-benzoyl)-5-(4-isopropyl-phenyl)-1-(6-methyl-pyridin-3-yl)-1,5-dihydro-pyrrol-2-one] | 252 to 254 °C | 1000 | 700 |  |  |  |
| Cc1ccc(N2C(=O)C(O)=C(C(=O)c3ccc(C(C)C)cc3)C2c2ccc(OC(C)C)nc2)nn1.Cl (stereo not drawn) [Example 167, 3-hydroxy-5-(6-isopropoxy-pyridin-3-yl)-4-(4-isopropyl-benzoyl)-1-(6-methyl-pyridazin-3-yl)-1,5-dihydro-pyrrol-2-one; hydrochloride] | 280 °C | < 1000 |  | < 1000 |  |  |
| COc1ccc(C2C(C(=O)c3ccc(C(C)C)cc3)=C(O)C(=O)N2c2ccc(C)nn2)cc1 (stereo not drawn) [Example 62, 3-hydroxy-4-(4-isopropyl-benzoyl)-5-(4-methoxy-phenyl)-1-(6-methyl-pyridazin-3-yl)-1,5-dihydro-pyrrol-2-one] | 263 to 267 °C |  | 800 |  | 900 |  |
| Cc1ccc(N2C(=O)C(O)=C(C(=O)c3ccc(-c4ccccc4)cc3)C2c2ccc(OC(F)(F)F)cc2)nn1 (stereo not drawn) [Example 79, 4-(biphenyl-4-carbonyl)-3-hydroxy-1-(6-methyl-pyridazin-3-yl)-5-(4-trifluoromethoxy-phenyl)-1,5-dihydro-pyrrol-2-one] | 226 to 232 °C |  | 500 |  | < 10000 |  |
| CCOc1ccc(C2C(C(=O)c3ccc(C(C)C)cc3)=C(O)C(=O)N2c2ccc(C)nn2)cc1 (stereo not drawn) [Example 104, 5-(4-ethoxy-phenyl)-3-hydroxy-4-(4-isopropyl-benzoyl)-1-(6-methyl-pyridazin-3-yl)-1,5-dihydro-pyrrol-2-one] | 279 °C |  |  |  | < 1000 | < 1000 |
| CC(C)c1ccc(C(=O)C2=C(O)C(=O)N(c3ccc(O)nn3)C2c2ccc(OC(F)(F)F)cc2)cc1 (stereo not drawn) [Example 159, 3-hydroxy-1-(6-hydroxy-pyridazin-3-yl)-4-(4-isopropyl-benzoyl)-5-(4-trifluoromethoxy-phenyl)-1,5-dihydro-pyrrol-2-one] | 255 °C |  |  |  | < 10000 | < 1000 |
| Cc1ccc(N2C(=O)C(O)=C(C(=O)c3ccc(C(C)C)cc3)C2c2ccc(OC(F)(F)F)cc2)nn1 (stereo not drawn) [Example 61, 3-hydroxy-4-(4-isopropyl-benzoyl)-1-(6-methyl-pyridazin-3-yl)-5-(4-trifluoromethoxy-phenyl)-1,5-dihydro-pyrrol-2-one] | 258 to 260 °C and 262 to 265 °C |  | 70 |  | 100 |  |
| Cc1ccc(N2C(=O)C(O)=C(C(=O)c3ccc(OC(F)(F)F)cc3)C2c2ccc(C(C)C)cc2)nn1 (stereo not drawn) [Example 25, 3-hydroxy-5-(4-isopropyl-phenyl)-1-(6-methyl-pyridazin-3-yl)-4-(4-trifluoromethoxy-benzoyl)-1,5-dihydro-pyrrol-2-one] | 269 °C |  | 500 |  | 200 |  |
| C=C(C)c1ccc(C(=O)C2=C(O)C(=O)N(c3ccc(C)nn3)C2c2ccc(OC(F)(F)F)cc2)cc1 (stereo not drawn) [Example 142, 3-hydroxy-4-(4-isopropenyl-benzoyl)-1-(6-methyl-pyridazin-3-yl)-5-(4-trifluoromethoxy-phenyl)-1,5-dihydro-pyrrol-2-one] | 253 °C |  |  |  | < 10000 | < 1000 |
| Cc1ccc(N2C(=O)C(O)=C(C(=O)c3ccc(C(C)C)cc3)C2c2ccc(OC3CCOCC3)cc2)nn1 (stereo not drawn) [Example 143, 3-hydroxy-4-(4-isopropyl-benzoyl)-1-(6-methyl-pyridazin-3-yl)-5-[4-(tetrahydro-pyran-4-yloxy)-phenyl]-1,5-dihydro-pyrrol-2-one] | 275 °C |  |  |  | < 10000 | < 10000 |
| Cc1cnc(N2C(=O)C(O)=C(C(=O)c3ccc(C(C)C)cc3)C2c2ccc(OC(F)(F)F)cc2)cn1 (stereo not drawn) [Example 128, 3-hydroxy-4-(4-isopropyl-benzoyl)-1-(5-methyl-pyrazin-2-yl)-5-(4-trifluoromethoxy-phenyl)-1,5-dihydro-pyrrol-2-one] | 266 to 268 °C |  |  |  | < 10000 | < 1000 |
| Cc1ccc(N2C(=O)C(O)=C(C(=O)c3ccc(C(C)C)cc3)[C@H]2c2ccc(C(F)(F)F)cc2)nn1 [Example 191, 3-hydroxy-4-(4-isopropyl-benzoyl)-1-(6-methyl-pyridazin-3-yl)-5(R)-(4-trifluoromethyl-phenyl)-1,5-dihydro-pyrrol-2-one] | 251 °C |  |  |  | < 100 | < 100 |
| Cc1ccc(N2C(=O)C(O)=C(C(=O)c3ccc(C(C)C)cc3)C2c2ccc(OC(C)C)cc2)nn1 (stereo not drawn) [Example 89, 3-hydroxy-5-(4-isopropoxy-phenyl)-4-(4-isopropyl-benzoyl)-1-(6-methyl-pyridazin-3-yl)-1,5-dihydro-pyrrol-2-one] | 280 to 281 °C |  |  |  | < 10000 | < 10000 |
| Cc1ccc(N2C(=O)C(O)=C(C(=O)c3ccc(C(C)C)cc3)C2c2ccc(OC(C)(C)C)cc2)nn1 (stereo not drawn) [Example 90, 5-(4-tert-butoxyphenyl)-3-hydroxy-4-(4-isopropyl-benzoyl)-1-(6-methyl-pyridazin-3-yl)-1,5-dihydro-pyrrol-2-one] | 276 to 277 °C |  |  |  | < 10000 | < 10000 |
| Cc1ccc(N2C(=O)C(O)=C(C(=O)c3ccc(C(C)C)cc3)C2c2ccc(OC3CC3)cc2)nn1 (stereo not drawn) [Example 120, 5-(4-cyclopropoxy-phenyl)-3-hydroxy-4-(4-isopropyl-benzoyl)-1-(6-methyl-pyridazin-3-yl)-1,5-dihydro-pyrrol-2-one] | 285 to 288 °C |  |  |  | < 1000 | < 1000 |
| Cc1ccc(N2C(=O)C(O)=C(C(=O)c3ccc(C4CCCCC4)cc3)C2c2ccc(OC(F)(F)F)cc2)nn1 (stereo not drawn) [Example 125, 4-(4-cyclohexyl-benzoyl)-3-hydroxy-1-(6-methyl-pyridazin-3-yl)-5-(4-trifluoromethoxy-phenyl)-1,5-dihydro-pyrrol-2-one] | 283 to 286 °C |  |  |  | < 10000 | < 10000 |
| Cc1ccc(N2C(=O)C(O)=C(C(=O)c3ccc(C(C)C)cc3)[C@H]2c2ccc(OC(F)(F)F)cc2)nn1 [Example 188, 3-hydroxy-4-(4-isopropyl-benzoyl)-1-(6-methyl-pyridazin-3-yl)-5(R)-(4-trifluoromethoxy-phenyl)-1,5-dihydro-pyrrol-2-one] | 217 °C |  |  |  | < 100 | < 100 |
| Cc1ccc(N2C(=O)C(O)=C(C(=O)c3ccc(C(C)C)cc3)[C@@H]2c2ccc(OC(F)(F)F)cc2)nn1 [Example 189, 3-hydroxy-4-(4-isopropyl-benzoyl)-1-(6-methyl-pyridazin-3-yl)-5(S)-(4-trifluoromethoxy-phenyl)-1,5-dihydro-pyrrol-2-one] | 221 °C |  |  |  | < 10000 | < 10000 |
| CC(C)c1ccc(C(=O)C2=C(O)C(=O)N(c3ccc(OCc4ccccc4)nn3)C2c2ccc(OC(F)(F)F)cc2)cc1 (stereo not drawn) [Example 161, 1-(6-benzyloxy-pyridazin-3-yl)-3-hydroxy-4-(4-isopropyl-benzoyl)-5-(4-trifluoromethoxy-phenyl)-1,5-dihydro-pyrrol-2-one] | 269 °C |  |  |  | < 10000 | < 1000 |

— patent US20120128630A1, “1-(6 MEMBERS AZO-HETEROCYCLIC)-PYRROLIN-2-ONE COMPOUNDS AS INHIBITORS OF HEPATITIS C NS5B POLYMERASE, THE PHARAMACEUTICAL COMPOSITION THEREOF AND THEIR THERAPEUTIC USE” (priority 2009, published 2012)
